Measured values: ChEMBL document CHEMBL5344424, “3-Hydroxypyridin-4(1H)-one Derivatives as pqs Quorum Sensing Inhibitors Attenuate Virulence and Reduce Antibiotic Resistance in Pseudomonas aeruginosa” (J Med Chem, 2023)

Experiments:
[1] = Inhibition of quorum sensing system in Pseudomonas aeruginosa PAO1 assessed as inhibition of pyocyanin production incubated for 24 hrs by optical density based analysis
[2] = Inhibition of quorum sensing system in Pseudomonas aeruginosa PAO1 assessed as inhibition of pyocyanin production at 10 uM incubated for 24 hrs by optical density based analysis relative to control
Pseudomonas aeruginosa = test: Synergistic antibacterial activity against Pseudomonas aeruginosa PAO1 infected in Caenorhabditis elegans assessed as worm survival rate at 0.125 ug/ml incubated for 72 hrs in presence of compound 16e by bright-field microscopy relative to control; type: functional

SMILES | IC50 [1] [µM] | inhibition [2] [%] | survival at 0.125 µg/mL (Pseudomonas aeruginosa) [%]
Cc1cc(=O)c(O)c(CNCc2cn(-c3ccc(N(C)C)cc3)nn2)n1C | 33.2 | – | –
Cc1cc(=O)c(O)c(CNCc2cn(-c3cccc(F)c3)nn2)n1C | 45.8 | – | –
CCCCCCn1cc(CNCc2c(O)c(=O)cc(C)n2C)nn1 | 35.9 | – | –
Cc1cc(=O)c(O)c(CNCc2cn(-c3cccc(Cl)c3)nn2)n1C | > 50 | – | –
Cc1cc(=O)c(O)c(CNCc2cn(-c3ccc(C#N)cc3)nn2)n1C | > 50 | – | –
Cc1cc(=O)c(O)c(CNCc2cn(-c3ccc(Br)cc3)nn2)n1C | 46.2 | – | –
COC(=O)c1ccccc1-n1cc(CNCc2c(O)c(=O)cc(C)n2C)nn1 | 28.4 | – | –
CCCCCn1cc(CNCc2c(O)c(=O)cc(C)n2C)nn1 | 35.3 | – | –
CC(=O)c1ccc(-n2cc(CNCc3c(O)c(=O)cc(C)n3C)nn2)cc1 | 37.4 | – | –
COc1cccc(-n2cc(CNCc3c(O)c(=O)cc(C)n3C)nn2)c1 | 42 | – | –
COc1ccccc1-n1cc(CNCc2c(O)c(=O)cc(C)n2C)nn1 | 29.2 | – | –
Cc1cc(=O)c(O)c(CNCc2cn(-c3ccc(N4CCN(C)CC4)cc3)nn2)n1C | > 50 | – | –
Cc1cc(=O)c(O)c(CNCc2cn(-c3ccccc3[N+](=O)[O-])nn2)n1C | > 50 | – | –
O=C(O)c1cn(C2CC2)c2cc(N3CCNCC3)c(F)cc2c1=O [CIPROFLOXACIN] | – | – | 35.7
Cc1cc(=O)c(O)c(CNCc2cn(-c3ccc(N)cc3)nn2)n1C | 44.9 | – | –
Cc1cc(=O)c(O)c(CNCc2cn(-c3ccccc3Br)nn2)n1C | 32.2 | – | –
Cc1cc(=O)c(O)c(CNCc2cn(-c3ccccc3C#N)nn2)n1C | > 50 | – | –
Cc1cc(=O)c(O)c(CNCc2cn(-c3ccncc3)nn2)n1C | > 50 | – | –
CC(=O)c1ccccc1-n1cc(CNCc2c(O)c(=O)cc(C)n2C)nn1 | 24.8 | – | –
Cc1cc(=O)c(O)c(CNCc2cn(-c3ccccc3)nn2)n1C | 34.7 | – | –
Cc1cc(=O)c(O)c(CNCc2cn(-c3ccccn3)nn2)n1C | > 50 | – | –
COC(=O)c1ccc(-n2cc(CNCc3c(O)c(=O)cc(C)n3C)nn2)cc1 | 45.8 | – | –
CCCCn1cc(CNCc2c(O)c(=O)cc(C)n2C)nn1 | > 50 | – | –

Continued, in another order:

IC50 [1] [µM] | inhibition [2] [%] | SMILES | survival at 0.125 µg/mL (Pseudomonas aeruginosa) [%]
24 | – | Cc1cc(=O)c(O)c(CNCc2cn(-c3ccc(O)cc3)nn2)n1C | –
18.4 | – | Cc1cc(=O)c(O)c(CNCc2cn(-c3ccccc3Cl)nn2)n1C | –
18.2 | – | Cc1cc(=O)c(O)c(CNCc2cn(-c3ccc(F)cc3)nn2)n1C | –
18.9 | – | Cn1cc(O)c(=O)cc1CNCc1cn(-c2ccc(OC(F)(F)F)cc2)nn1 | –
15.2 | – | Cc1cc(=O)c(O)c(CNCc2cn(-c3ccc(Cl)cc3)nn2)n1C | –
4.6 | 64 | CCCCCCCCn1cc(CNCc2c(O)c(=O)cc(C)n2C)nn1 | –
6.6 | 51.2 | CCCCCCCCCn1cc(CNCc2c(O)c(=O)cc(C)n2C)nn1 | –
21 | – | CCCCCCCCn1cc(CNCc2cc(=O)c(O)cn2C)nn1 | –
8.4 | 43.3 | Cc1cc(=O)c(O)cn1Cc1cn(-c2ccc(Oc3ccccc3)cc2)nn1 | –
18.2 | – | Cc1cc(=O)c(O)c(CNCc2cn(-c3ccccc3F)nn2)n1C | –
5.1 | 55.1 | Cc1cc(=O)c(O)c(COCc2cn(-c3ccc(Oc4ccccc4)cc3)nn2)n1C | –
8.1 | 50.1 | Cc1cc(=O)c(O)c(CNCc2cn(-c3ccccc3OC(F)(F)F)nn2)n1C | –
9.8 | 49 | Cc1cc(=O)c(O)c(CNCc2cn(-c3ccccc3C(F)(F)F)nn2)n1C | –
22 | – | CCCCCCCn1cc(CNCc2c(O)c(=O)cc(C)n2C)nn1 | –
6.1 | 58.3 | Cn1cc(O)c(=O)cc1CNCc1cn(-c2ccc(Oc3ccccc3)cc2)nn1 | –
6.9 | 52 | COc1ccc(-n2cc(CNCc3c(O)c(=O)cc(C)n3C)nn2)cc1 | –
8.5 | 44.9 | Cc1ccc(-n2cc(CNCc3c(O)c(=O)cc(C)n3C)nn2)cc1 | –
7.7 | 60.1 | Cc1cc(=O)c(O)c(CNCc2cn(-c3ccc(C(F)(F)F)cc3)nn2)n1C | –
4 | 66.7 | Cc1cc(=O)c(O)c(CNCc2cn(-c3ccc(OC(F)(F)F)cc3)nn2)n1C | –
19.4 | – | Cc1cc(=O)c(O)c(CNCC(=O)Nc2ccc(Oc3ccccc3)cc2)n1C | –
